Measurements taken from article PMC12837517, “Valorization of Onion-Processing Waste: Digestive Fate, Bioavailability, and Cellular Antioxidant Properties of Red and Yellow Peels Polyphenols” (Antioxidants, 2025).
Read-outs that look alike come from different tables or passages of the source. Marks after values point to notes of the source that are not given here.

Assays:
Caco-2 cell monolayer [1] = assay: Transport of polyphenols across differentiated Caco-2 monolayers (apical stability, basolateral bioavailability, Papp)
Experimental: (§1) To determine how effectively specific polyphenols might be absorbed through the human intestine, an in vitro assay was conducted utilizing the Caco-2 cell line, which, when fully differentiated, mimics the human intestinal barrier, as described by D’Antuono et al. [16]. […] The cells were maintained for 21 days in a standard culture condition to ensure complete differentiation into a tight monolayer. The medium in both the apical and basolateral compartments was refreshed twice weekly.
(§2) The development of a robust epithelial barrier was confirmed by measuring the Transepithelial Electrical Resistance (TEER) using a volt–ohm meter. […] Prior to the experiment, the monolayers were rinsed with a pH 5.5 PBS. The apical chamber then received 2 mL of phenol red-free DMEM containing hydroalcoholic extracts from red and yellow onion peels, adjusted to a final total polyphenol concentration of 60 μg/mL and 30 μg/mL, respectively. The system was incubated at 37 °C, and samples from both the apical and basolateral chambers were collected for 30, 60, 90, and 120 min to track the time-dependent flux of the compounds. These samples were flash-frozen at −80 °C pending High-Performance Liquid Chromatography (HPLC) analysis.
(§3) For the assessment of polyphenol accumulation within the Caco-2 cells, the monolayers were first subjected to a sequential wash with PBS pH 5.5, and then with a solution of 0.1% fatty acid-free bovine albumin in PBS pH 5.5. The cells were then mechanically harvested into 1 mL of cold PBS pH 5.5 and stored at −80 °C under a nitrogen atmosphere. […] Polyphenols were chemically isolated from the sonicated Caco-2 cells and the basolateral solutions via a liquid–liquid extraction technique, employing ethyl acetate EtOAc stabilized with 0.01% butylated hydroxytoluene (BHT). This extraction was repeated three times, and the pooled organic layers were dried under vacuum before being dissolved in 200 μL mobile phase for HPLC analysis.

Caco-2 cells = assay: Polyphenol accumulation within Caco-2 cells (uptake); format: in vitro ADME, human
Experimental: as §1, §2, §3

[2] = Transport of polyphenols across differentiated Caco-2 monolayers (apical stability, basolateral bioavailability, Papp); settings: human, Caco-2
Experimental: as §1, §2, §3

[3] = Two-step in vitro gastrointestinal digestion, digestive stability of polyphenols; format: in vitro ADME; settings: for Digestive Stability (%) Gastric %: after gastric phase (pepsin, pH 2.5, 37 °C, 1 h); for Digestive Stability (%) Intestinal %: after small intestinal phase (pH 6.5, 37 °C, 2 h)
Experimental: The digestive stability of polyphenols was assessed using a two-step in vitro gastrointestinal digestion model, as described by Cardinali et al.. Aliquots (3 mL) of aqueous onion peel extracts (500 μg/mL total polyphenols, determined by HPLC-DAD) were diluted with 4.5 mL of 0.9% NaCl at pH 7. The gastric phase was initiated with addition of 0.9 mL of porcine pepsin solution (40 mg/mL) in 0.1 N HCl and adjustment of pH to 2.5 ± 0.1 with 1 N HCl. Samples were incubated at 37 °C for 1 h. Following gastric digestion, the small intestinal phase was initiated by adjusting the pH of gastric digesta to 5.3 with 100 mM NaHCO3 and 1 N NaOH, followed by the addition of 2.7 mL of small intestinal enzyme solution (lipase 2 mg/mL, pancreatin 4 mg/mL, and bile 24 mg/mL in 100 mM NaHCO3). The final sample pH was adjusted to 6.5 ± 0.1 with 1 N NaOH, the volume was standardized to 15 mL with saline solution (0.9% NaCl), and the sample was incubated at 37 °C for 2 h. After both digestion steps (gastric and small intestinal), the samples were collected and centrifuged (10,000× g, 1 h, 4 °C), filtered (0.45 μm), and then analyzed by HPLC-DAD. Digestive stability (%) was calculated by comparing pre- and post-digestion polyphenol content.

Caco-2 cell monolayer [4] = system: Caco-2 cell monolayer
Experimental: as §1, §2, §3

[5] = set-up: method as in PMID 34388527; settings: at room temperature; cited from earlier work
[6] = yellow onion peels extract, 30 min (maximum)
[7] = red onion peels “Rossa di Tropea” extract
[8] = yellow onion peels “Recas” extract
[9] = yellow onion peels extract, 30-120 min
[10] = yellow onion peels “Recas” extract, listed as quercetin aglycone

**Q.** With `OC[C@H]1O[C@@H](Oc2cc3c(O)cc(O)cc3[o+]c2-c2ccc(O)c(O)c2)[C@H](O)[C@@H](O)[C@@H]1O` [Cyanidin 3-glucoside] as the molecule, how does the “Papp (apical-to-basolateral)” value (Caco-2 cell monolayer [1]; red onion peels extract) read?
**A.** The value was 51 nm/s.

**Q.** What about the “detection in basolateral compartment” value (Caco-2 cell monolayer [1]; red onion peels extract, 30-120 min) of the same molecule?
**A.** Its value is “present in the basolateral side at 60 and 120 min”.

**Q.** With `O=c1c(O)c(-c2ccc(O[C@@H]3O[C@H](CO)[C@@H](O)[C@H](O)[C@H]3O)c(O)c2)oc2cc(O)cc(O)c12` [Spiraeoside, quercetin-4′-O-glucoside] as the molecule, how does the cellular accumulation (Caco-2 cells; red onion peels extract, 90 min (maximum)) read?
**A.** The cellular accumulation was 0.142 ng/µg protein.

**Q.** And the cellular accumulation (Caco-2 cells; [6])?
**A.** Its cellular accumulation is 0.162 ng/µg protein.

**Q.** What about the Papp A→B at 120 min, 30 µg/mL total polyphenols [2] of the same molecule?
**A.** Its Papp A→B at 120 min, 30 µg/mL total polyphenols is 55 nm/s.

**Q.** What about the bioavailability at 90 min, 30 µg/mL total polyphenols [2] of the same molecule?
**A.** Its bioavailability at 90 min, 30 µg/mL total polyphenols is roughly 8%.

**Q.** And the bioavailability at 120 min, 30 µg/mL total polyphenols [2]?
**A.** Its bioavailability at 120 min, 30 µg/mL total polyphenols is roughly 8%.

**Q.** And the recovery at 30 min, 60 μg/mL total polyphenols [2]?
**A.** Its recovery at 30 min, 60 μg/mL total polyphenols is 78%.

**Q.** And the recovery at 120 min, 60 μg/mL total polyphenols [2]?
**A.** Its recovery at 120 min, 60 μg/mL total polyphenols is 62%.

**Q.** And the “Digestive Stability (%) Gastric %” value [3, 7]?
**A.** The value was 99.51 ± 3.50 ^a %.

**Q.** And the “Digestive Stability (%) Intestinal %” value [3, 7]?
**A.** The value was 39.97 ± 6.96 ^b %.

**Q.** And the “Digestive Stability (%) Gastric %” value [3, 8]?
**A.** Its value is 81.11 ± 6.54 ^a %.

**Q.** What about the “Digestive Stability (%) Intestinal %” value [3, 8] of the same molecule?
**A.** Its value is 36.76 ± 3.49 ^b %.

**Q.** Which results are given for `O=c1c(O)c(-c2ccc(O)c(O)c2)oc2cc(O)cc(O)c12` [Quercetin]?
**A.** maximum cellular accumulation (Caco-2 cells; red onion peels extract, time not stated): 1.468 ng/µg protein; Papp A→B at 120 min, 60 µg/mL total polyphenols [2]: 11 nm/s; bioavailability at 60 min, 60 µg/mL total polyphenols [2]: 0.6%; recovery at 30 min, 60 μg/mL total polyphenols [2]: 38%; recovery at 120 min, 60 μg/mL total polyphenols [2]: 7%; detection in basolateral compartment (Caco-2 cell monolayer [1]; [9]): not detected; Digestive Stability (%) Gastric % [3, 7]: 32.34 ± 3.97 ^a %; Digestive Stability (%) Intestinal % [3, 7]: 15.37 ± 2.55 ^b %; Digestive Stability (%) Gastric % [3, 8]: 3.44 ± 0.56 ^b %; Digestive Stability (%) Gastric % [3, 10]: 3.44%; Digestive Stability (%) Intestinal % [3, 8]: 15.64 ± 0.96 ^a %; Digestive Stability (%) Intestinal % [3, 10]: 15.64%

**Q.** With `COc1cc(-c2oc3cc(O)cc(O)c3c(=O)c2O)ccc1O` [isorhamnetin] as the molecule, how does the cellular accumulation (Caco-2 cells; red onion peels extract, 120 min) read?
**A.** Its cellular accumulation is 0.040 ng/µg protein.

**Q.** Which cellular accumulation (Caco-2 cells; red onion peels extract, 30 min) does the source give for `O=C(O)c1ccc(O)c(O)c1` [Protocatechuic acid] here?
**A.** The cellular accumulation was 0.013 ng/µg protein.

**Q.** What about the cellular accumulation (Caco-2 cells; [6]) of the same molecule?
**A.** Its cellular accumulation is 0.050 ng/µg protein.

**Q.** And the Papp A→B at 120 min, 30 µg/mL total polyphenols [2]?
**A.** Its Papp A→B at 120 min, 30 µg/mL total polyphenols is 84 nm/s.

**Q.** What about the bioavailability at 90 min, 30 µg/mL total polyphenols [2] of the same molecule?
**A.** Its bioavailability at 90 min, 30 µg/mL total polyphenols is 6.8%.

**Q.** And the bioavailability at 120 min, 30 µg/mL total polyphenols [2]?
**A.** The bioavailability at 120 min, 30 µg/mL total polyphenols was 7.7%.

**Q.** And the “stability in apical culture medium over time” value (Caco-2 cell monolayer [1]; [9])?
**A.** Its value is “consistent stability”.

**Q.** And the recovery ([3]; in both onion varieties, phase not specified, read-out: recovery after digestion)?
**A.** The recovery was greater than 100%.

**Q.** What about the “Digestive Stability (%) Gastric %” value [3, 7] of the same molecule?
**A.** Its value is greater than 100.00%.

**Q.** What about the “Digestive Stability (%) Intestinal %” value [3, 7] of the same molecule?
**A.** The value was greater than 100.00%.

**Q.** And the “Digestive Stability (%) Gastric %” value [3, 8]?
**A.** The value was 90.32 ± 4.41 ^b %.

**Q.** What about the “Digestive Stability (%) Intestinal %” value [3, 8] of the same molecule?
**A.** Its value is >100.00 ^a %.

**Q.** Which “Papp (apical-to-basolateral)” value (Caco-2 cell monolayer [4]) does the source give for `O=c1c(O[C@@H]2O[C@H](CO)[C@@H](O)[C@H](O)[C@H]2O)c(-c2ccc(O[C@@H]3O[C@H](CO)[C@@H](O)[C@H](O)[C@H]3O)c(O)c2)oc2cc(O)cc(O)c12` [Quercetin 3,4′-diglucoside] here?
**A.** The value was 61 nm/s.

**Q.** For `O=c1c(O)c(-c2ccc(O[C@@H]3O[C@H](CO)[C@@H](O)[C@H](O)[C@H]3O)c(O)c2)oc2cc(O[C@@H]3O[C@H](CO)[C@@H](O)[C@H](O)[C@H]3O)cc(O)c12` [Quercetin 7,4′-diglucoside], which “Papp (apical-to-basolateral)” value (Caco-2 cell monolayer [4]) is on record?
**A.** The value was 59 nm/s.

**Q.** For `O=C1c2c(O)cc(O)cc2OC(c2ccc(O)c(O)c2)C1O` (stereo not shown) [taxifolin], which solubility [5] is on record?
**A.** The solubility was 0.1%.
